Assay results as given in patent US6686350B1, “Cell adhesion inhibitors” (Biogen, Inc., priority 1996, dated 2004).

Target: T1, VLA-4 (Homo sapiens, UniProt P05556+P13612)
T1 construct: endogenous in cells; host or cells: Jurkat cells
Experiment: VLA-4 direct binding assay (VCAM-IgG alkaline phosphatase conjugate binding to Jurkat cells)
Details: Table 1, Structure-Activity; assay and unit inferred; read-out: Act
Excerpt: A direct binding assay may also be employed to quantitate the inhibitory activity of the compounds of this invention. (“DBA”) In direct binding assays, for example, a VCAM-IgG fusion protein containing the first two immunoglobulin domains of VCAM (D1D2) attached above the hinge region of an IgG1 molecule (“VCAM 2D-IgG”), is conjugated to a marker enzyme, such as alkaline phosphatase (“AP”). The synthesis of this VCAM-IgG fusion is described in PCT publication WO 90/13300, the disclosure of which is herein incorporated by reference. The conjugation of that fusion to a marker enzyme can be achieved by cross-linking methods well-known in the art.
The VCAM-IgG enzyme conjugate is then placed in the wells of a multi-well filtration plate, such as that contained in the Millipore Multiscreen Assay System (Millipore Corp., Bedford, Mass.). Varying concentrations of the test inhibitory compound are then added to the wells followed by addition of VLA-4-expressing cells. The cells, compound and VCAM-IgG enzyme conjugate are mixed together and allowed to incubate at room temperature.
Following incubation, the wells are vacuum drained, leaving behind the cells and any bound VCAM. Quantitation of bound VCAM is determined by adding an appropriate calorimetric substrate for the enzyme conjugated to VCAM-IgG and determining the amount of reaction product. Decreased reaction product indicates increased binding inhibitory activity. The protocol is described more specifically below:
1. Block a 96 well Millipore Multiscreen Assay System filtration plate^1 with 200:l/well of blocking buffer (1×Phosphate Buffered Saline, 0.1%Tween 20, 1%BSA) for at least 1 hour at room temperature.
2. Drain the plate with the vacuum manifold, and wash with 200 μl/well of assay buffer (Tris Buffered Saline, 0.1% BSA, 2 mM glucose, 10 mM HEPES, pH 7.5) draining the plate in between. Repeat twice. Then blot the plate bottom on paper to remove excess buffer.
3. Prepare a 4 μg/ml VCAMIg-AP solution (Alkaline phosphatase coupled to VCAMIg) in assay buffer and filter with a 0.2:low protein binding syringe filter (Gelman Sciences #4454). From this stock, prepare a 0.4 μg/ml working solution of VCAMIg-AP in assay buffer. Add 25:l of 0.4 μg/ml VCAMIg-AP to every well.
5. Prepare dilutions of compounds to be tested in assay buffer. Concentrations should be 4× the desired final concentration and run in triplicate. Add 25 μl of the compound dilutions to designated wells.
7. Jurkat cells are centrifuged to remove cell culture media and washed once in assay buffer. Resuspend the washed Jurkat cells to a concentration of 8×10^6/ml in assay buffer containing 2 mM MnCl2. Pipeting the mixture up and down to ensure a uniform cell suspension. Add 50:l of cell suspension to each well except the NSB wells.
8. Gently tap the sides of the plate to mix well contents. Incubate the plate for 60 minutes at room temperature (RT).
9. Place the plate on the vacuum manifold to drain the well contents. Wash twice with 100 μl/well of wash buffer (assay buffer containing 1 mM MnCl2). Drain the plate and blot on paper towels.
10. Add 10 mg/ml of 4-Nitro phenyl phosphate to Substrate buffer (0.1M glycine, 1 mM ZnCl2, 1 mM MgCl2, pH 10.5). Add 100 μl/well and incubate for exactly 30 minutes at RT.
11. To stop the reaction, add 100 μl/well of 3N NaOH.
12. Read the 96-well plate in a Molecular Devices ELISA platereader at 405 nm. Analyze data with SoftMax software.

T1 sequence (P13612 34-1032): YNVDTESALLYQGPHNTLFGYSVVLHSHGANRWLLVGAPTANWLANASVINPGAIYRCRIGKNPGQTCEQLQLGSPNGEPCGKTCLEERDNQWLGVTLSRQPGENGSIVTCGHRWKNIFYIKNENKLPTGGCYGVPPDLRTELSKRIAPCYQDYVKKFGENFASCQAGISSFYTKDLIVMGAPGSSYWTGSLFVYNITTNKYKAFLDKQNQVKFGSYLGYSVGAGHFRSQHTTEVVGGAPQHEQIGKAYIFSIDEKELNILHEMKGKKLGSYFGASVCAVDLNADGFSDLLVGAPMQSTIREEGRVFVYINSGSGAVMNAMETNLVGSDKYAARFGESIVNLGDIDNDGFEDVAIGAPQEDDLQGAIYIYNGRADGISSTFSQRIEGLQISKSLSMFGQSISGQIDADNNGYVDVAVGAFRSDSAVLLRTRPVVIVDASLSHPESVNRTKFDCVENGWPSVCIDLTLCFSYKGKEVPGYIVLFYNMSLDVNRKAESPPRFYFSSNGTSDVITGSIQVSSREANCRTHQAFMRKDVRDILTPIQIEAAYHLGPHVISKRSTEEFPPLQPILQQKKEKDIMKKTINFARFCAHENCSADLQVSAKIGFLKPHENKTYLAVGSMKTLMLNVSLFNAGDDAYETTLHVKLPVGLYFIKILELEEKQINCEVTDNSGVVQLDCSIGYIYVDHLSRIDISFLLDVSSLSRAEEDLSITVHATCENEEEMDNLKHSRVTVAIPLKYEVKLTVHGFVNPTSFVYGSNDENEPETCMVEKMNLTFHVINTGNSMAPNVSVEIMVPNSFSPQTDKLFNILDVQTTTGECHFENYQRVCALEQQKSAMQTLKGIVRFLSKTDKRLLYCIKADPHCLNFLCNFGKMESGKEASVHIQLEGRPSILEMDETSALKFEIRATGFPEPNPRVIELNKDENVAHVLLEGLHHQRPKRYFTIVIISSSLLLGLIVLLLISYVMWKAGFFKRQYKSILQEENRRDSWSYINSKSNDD
T1 sequence (P05556 21-798): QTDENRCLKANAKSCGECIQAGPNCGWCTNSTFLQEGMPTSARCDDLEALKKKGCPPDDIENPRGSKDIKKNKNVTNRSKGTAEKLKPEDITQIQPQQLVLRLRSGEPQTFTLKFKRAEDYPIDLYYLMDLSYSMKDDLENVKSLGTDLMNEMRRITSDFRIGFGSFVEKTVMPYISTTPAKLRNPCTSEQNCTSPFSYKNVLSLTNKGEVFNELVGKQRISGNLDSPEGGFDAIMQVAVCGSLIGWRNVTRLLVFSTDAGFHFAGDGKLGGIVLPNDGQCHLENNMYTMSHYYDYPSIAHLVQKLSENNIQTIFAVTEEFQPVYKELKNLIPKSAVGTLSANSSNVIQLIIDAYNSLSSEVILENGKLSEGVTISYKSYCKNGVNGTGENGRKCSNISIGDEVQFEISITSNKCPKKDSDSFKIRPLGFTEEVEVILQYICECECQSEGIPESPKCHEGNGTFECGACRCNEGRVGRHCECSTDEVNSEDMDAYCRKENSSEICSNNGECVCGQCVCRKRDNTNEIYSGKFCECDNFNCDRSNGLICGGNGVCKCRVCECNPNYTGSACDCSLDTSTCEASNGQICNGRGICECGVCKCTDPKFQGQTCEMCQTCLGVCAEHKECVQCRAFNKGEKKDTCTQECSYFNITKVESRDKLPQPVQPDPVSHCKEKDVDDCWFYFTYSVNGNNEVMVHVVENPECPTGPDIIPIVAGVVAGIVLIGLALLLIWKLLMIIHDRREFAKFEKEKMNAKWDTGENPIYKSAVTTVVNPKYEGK

Row | Compound | IC50
1 | COCC(C)N1C(=O)CN(CCC(=O)O)C(=O)c2cc(NC(=O)Cc3ccc(NC(=O)Nc4ccccc4C)cc3)ccc21 (centres unmarked) [BX54] | 128 nM
2 | Cc1ccccc1NC(=O)Nc1ccc(CC(=O)Nc2ccc3c(c2)C(=O)N(CCC(=O)O)CC(=O)N3CC2CCCO2)cc1 (centres unmarked) [BX55] | 120 nM
3 | COC(=O)CN1C(=O)CN(CCC(=O)O)C(=O)c2cc(NC(=O)Cc3ccc(NC(=O)Nc4ccccc4C)cc3)ccc21 [BX57] | 113 nM
4 | Cc1ccccc1NC(=O)Nc1ccc(CC(=O)Nc2ccc3c(c2)C(=O)N(CCC(=O)O)CC(=O)N3Cc2ccccc2)cc1 [BX58] | 116 nM
5 | CCC(CC(=O)O)N1CC(=O)N(C)c2ccc(NC(=O)Cc3ccc(NC(=O)Nc4ccccc4C)cc3)cc2C1=O (centres unmarked) [BX60] | 103 nM
6 | COCCN1CC(=O)N(CCC(=O)O)Cc2cc(NC(=O)Cc3ccc(NC(=O)Nc4ccccc4C)cc3)ccc21 [BX61] | 99.3 nM
7 | Cc1ccccc1NC(=O)Nc1ccc(CC(=O)Nc2ccc3c(c2)C(=O)N(C(CC(=O)O)C(=O)O)CC(=O)N3CCC(=O)O)cc1 (centres unmarked) [BX62] | 95 nM
8 | COC(=O)C(C(C)C)N1C(=O)CN(CCC(=O)O)C(=O)c2cc(NC(=O)Cc3ccc(NC(=O)Nc4ccccc4C)cc3)ccc21 (centres unmarked) [BX63] | 75 nM
9 | CN1C(=O)CN(CCC(=O)O)C(=O)c2cc(NC(=O)Cc3ccc(NC(=O)c4c[nH]c5ccccc45)cc3)ccc21 [BX64] | 24 nM
10 | CN1Cc2ccc(NC(=O)Cc3ccc(NC(=O)Nc4ccccc4Br)cc3)cc2CN(CC(=O)O)C1=O [BX65] | 65 nM
11 | Cc1ccccc1NC(=O)Nc1ccc(CC(=O)Nc2ccc3c(c2)C(=O)N(C(C)CC(=O)O)CC(=O)N3C)cc1 (centres unmarked) [BX67] | 62.5 nM
12 | COc1ccc(CCN2CC(=O)N(CCC(=O)O)Cc3cc(NC(=O)Cc4ccc(NC(=O)Nc5ccccc5C)cc4)ccc32)cc1OC [BX68] | 35 nM
13 | Cc1ccccc1NC(=O)Nc1ccc(CC(=O)Nc2ccc3c(c2)CN(CCC(=O)O)C(=O)CN3CCN2CCOCC2)cc1 [BX69] | 31.5 nM
14 | COCCCN1CC(=O)N(CCC(=O)O)Cc2cc(NC(=O)Cc3ccc(NC(=O)Nc4ccccc4C)cc3)ccc21 [BX70] | 30.5 nM
15 | Cc1ccccc1NC(=O)Nc1ccc(CC(=O)Nc2ccc3c(c2)CN(CCC(=O)O)C(=O)CN3CCC(=O)O)cc1 [BX71] | 28.5 nM
16 | CCOC(=O)CCN1CC(=O)N(CCC(=O)O)Cc2cc(NC(=O)Cc3ccc(NC(=O)Nc4ccccc4C)cc3)ccc21 [BX72] | 12.5 nM
17 | Cc1ccccc1NC(=O)Nc1ccc(NC(=O)C2CCCN2C(=O)CCCCC(=O)O)cc1 (centres unmarked) [CX1] | 1350 nM
18 | Cc1ccccc1NC(=O)Nc1ccc(NC(=O)[C@@H]2CCCN2C(=O)NCCCC(=O)O)cc1 [CX2] | 8940 nM
19 | Cc1ccccc1NC(=O)Nc1ccc(NC(=O)[C@@H]2CCCN2C(=O)NCCC(=O)O)cc1 [CX7] | 190 nM
20 | Cc1ccccc1NC(=O)Nc1ccc(NC(=O)[C@@H]2CCCN2C(=O)CCCC(=O)O)cc1 [CX8] | 480 nM

Row | Compound | IC50
21 | Cc1ccccc1NC(=O)Nc1ccc(NC(=O)[C@@H]2CCCN2C(=O)CC[C@@H](C)CC(=O)O)cc1 [CX9] | 332 nM
22 | Cc1ccccc1NC(=O)Nc1ccc(NC(=O)[C@@H]2CCCN2C(=O)CC(C)CC(=O)O)cc1 (some centres unmarked) [CX10] | 258 nM
23 | Cc1ccccc1NC(=O)Nc1ccc(NC(=O)[C@@H]2CCCN2C(=O)CC(C)CCC(=O)O)cc1 (some centres unmarked) [CX11] | 144 nM
24 | Cc1ccccc1NC(=O)Nc1ccc(NC(=O)[C@@H]2CSCN2C(=O)CCCCC(=O)O)cc1 [CX12] | 63.5 nM
25 | Cc1ccccc1NC(=O)Nc1ccc(NC(=O)CN(CCC(C)C)C(=O)CCCCC(=O)O)cc1 [CX13] | 52.5 nM
26 | O=C(O)CCNC(=O)[C@@H]1CCCN(C(=O)Cc2ccc(NC(=O)Nc3ccccc3)cc2)C1 [MX1] | 872 nM
27 | COc1ccc(CNC(=O)C2=C(C(=O)N[C@@H](CC(=O)O)c3ccc(OC)cc3)CCC2)cc1 [MX2] | 250 nM
28 | Cc1ccccc1NC(=O)Nc1ccc(CC(=O)Nc2cccc(S(=O)(=O)NC(C)CC(=O)O)c2)cc1 (centres unmarked) [RX2] | 10600 nM
29 | Cc1ccccc1NC(=O)Nc1ccc(CC(=O)Nc2cccc(OCCCCC(=O)O)c2)cc1 [RX4] | 4460 nM
30 | Cc1ccccc1NC(=O)Nc1ccc(CC(=O)Nc2cccc(S(=O)(=O)NCCC(=O)O)c2)cc1 [RX5] | 3810 nM
31 | Cc1ccccc1NC(=O)Nc1ccc(CC(=O)Nc2cccc(OCCC(C)C(=O)O)c2)cc1 (centres unmarked) [RX6] | 2590 nM
32 | COc1ccc(NC(=O)Cc2ccc(NC(=O)Nc3ncccc3C)cc2)cc1OCCCC(=O)O [RX7] | 2300 nM
33 | Cc1ccccc1NC(=O)Nc1ccc(CC(=O)Nc2cccc(CN(CCC(=O)O)C(=O)Cc3ccccc3)c2)cc1 [RX8] | 2250 nM
34 | Cc1ccccc1NC(=O)Nc1ccc(CC(=O)Nc2cc(OCCCC(=O)O)ccc2C(C)C)cc1 [RX10] | 2040 nM
35 | Cc1ccccc1NC(=O)Nc1ccc(CC(=O)NCc2cccc(OCC(=O)O)c2)cc1 [RX11] | 1140 nM
36 | Cc1ccccc1NC(=O)Nc1ccc(NC(=O)Nc2cccc(OCCCC(=O)O)c2)cc1 [RX13] | 686 nM
37 | Cc1ccccc1NC(=O)Nc1ccc(CC(=O)NCc2cccc(OCCCC(=O)O)c2)cc1 [RX14] | 652 nM
38 | Cc1ccccc1NC(=O)Nc1ccc(CC(=O)Nc2cccc(NCCC(=O)O)c2)cc1 [RX15] | 650 nM
39 | Cc1ccccc1NC(=O)Nc1ccc(CC(=O)Nc2cc(OCCCC(=O)O)cc(OCCC(C)C)c2)cc1 [RX16] | 574 nM
40 | Cc1ccccc1NC(=O)Nc1ccc(CC(=O)Nc2ccc(C(=O)O)c(OCCCC(=O)O)c2)cc1 [RX17] | 406 nM

Row | Compound | IC50
41 | Cc1ccccc1NC(=O)Nc1ccc(CC(=O)Nc2cccc(CN(CCC(=O)O)C(=O)c3ccccc3)c2)cc1 [RX18] | 350 nM
42 | Cc1ccccc1NC(=O)Nc1ccc(CC(=O)Nc2cccc(OCCC(=O)O)c2)cc1 [RX19] | 317 nM
43 | CC(=O)N(CCCC(=O)O)Cc1cccc(NC(=O)Cc2ccc(NC(=O)Nc3ccccc3C)cc2)c1 [RX20] | 250 nM
44 | Cc1ccccc1NC(=O)Nc1ccc(CC(=O)Nc2cccc(OC/C=C/C(=O)O)c2)cc1 [RX21] | 285 nM
45 | COC(=O)CCCOc1cc(NC(=O)Cc2ccc(NC(=O)Nc3ccccc3C)cc2)cc(OCCCC(=O)O)c1 [RX22] | 157 nM
46 | Cc1ccccc1NC(=O)Nc1ccc(CC(=O)Nc2cccc(OCCCC(=O)O)c2)cc1 [RX23] | 144 nM
47 | Cc1ccccc1NC(=O)Nc1ccc(CC(=O)Nc2ccc(C)c(OCCCC(=O)O)c2)cc1 [RX24] | 855 nM
48 | COc1cc(NC(=O)Cc2ccc(NC(=O)Nc3ccccc3C)cc2)cc(OCCCC(=O)O)c1 [RX26] | 77.7 nM
49 | CCOc1cc(NC(=O)Cc2ccc(NC(=O)Nc3ccccc3C)cc2)cc(OCCCC(=O)O)c1 [RX27] | 50 nM
50 | COc1ccc([C@H](CC(=O)O)NC(=O)C(CC(=O)Nc2ccc(NC(=O)c3ccccc3)cc2)CC(C)C)cc1OC (some centres unmarked) [SX3] | 165 nM
51 | COc1ccc(C(CC(=O)O)NC(=O)C(CC(=O)NCc2ccccc2)CC(C)C)cc1 (centres unmarked) [SX6] | 6750 nM
52 | Cc1ccccc1NC(=O)Nc1ccc(NC(=O)CC(CC(C)C)C(=O)N[C@@H](CC(=O)O)CN2CCOCC2)cc1 (some centres unmarked) [SX7] | 5980 nM
53 | COc1ccc([C@H](CC(=O)O)NC(=O)C(C)CC(=O)Nc2ccc(NC(=O)Nc3ccccc3C)cc2)cc1OC (some centres unmarked) [SX9] | 5120 nM
54 | COc1ccc(C(CC(=O)O)NC(=O)C(CC(=O)Nc2ccc(NC(=O)Nc3ccccc3C)cc2)CC(C)C)cc1 (centres unmarked) [SX13] | 3490 nM
55 | COc1ccc([C@H](CC(=O)O)NC(=O)C(CC(=O)Nc2ccc(CCCc3ccccc3)cc2)CC(C)C)cc1OC (some centres unmarked) [SX14] | 8240 nM
56 | COc1ccc([C@H](CC(=O)O)NC(=O)C(CC(=O)Nc2ccc(C(N)=O)cc2)CC(C)C)cc1OC (some centres unmarked) [SX15] | 3000 nM
57 | COc1ccc([C@H](CC(=O)O)NC(=O)C(N)CC(=O)Nc2ccc(NC(=O)Nc3ccccc3C)cc2)cc1OC (some centres unmarked) [SX19] | 1940 nM
58 | COc1ccc(C(CC(=O)O)NC(=O)C(CC(=O)Nc2ccc(NC(=O)Nc3ccccc3)cc2)CC(C)C)cc1 (centres unmarked) [SX23] | 1330 nM

Same assay, conditions: qualitative statement

Row | Compound | VLA-4 inhibitory activity
59 | Cc1ccccc1NC(=O)Nc1ccc(NC(=O)CN(C)C(=O)CN(CCC(=O)O)C(=O)c2ccccc2)cc1 [Compound A] | having VLA-4 inhibitory activity
